Data from patent US9345904B2, “Photodynamic therapy using photosensitizing agent or 5-aminolevulinic acid” (SBI Pharmaceuticals Co., Ltd., priority 2011, dated 2016).

Legend:
MKN45 cells = assay: Cell-killing effect of ALA-PDT by wavelength, MTT assay survival rate; type: cell-based
Method: MKN45 cells (purchased from Riken Cell Bank) cultured in a 35-mm dish were cultured for 4 hours in the presence of 0.168 mg/mL ALA. Then, 5 mL of a hemoglobin solution was dispensed into a 60-mm dish, placed on the 35-mm dish in which the culture was performed in the presence of ALA, and irradiated with light. Light shielding by hemoglobin was provided to imitate the inside of a living body because hemoglobin is considered to be a leading cause of the inhibition of light invasion in photodynamic therapy. The culture was irradiated to 4.5 J/cm^2 (5 mW/cm^2, 15 min.) with light having a peak at 402 nm, 502 nm, 517 nm, 529 nm, or 636 nm. […]
The survival rate of cells after light irradiation was measured using an MTT assay method. […] Thereafter, 200 μL thereof was dispensed into a 96-well plate and measured for absorbance at 570 nm using a plate reader (from Bio-Rad). The survival rate was measured from the absorbance of each sample and expressed relative to the absorbance after a medium without cultured cells were subjected to these procedures, set to 0%, and the absorbance after such cells cultured as control were subjected to these procedures, set to 100%. Optical power density with light shielding by hemoglobin was measured using Power Meter (from Scientex, Inc.); the results are shown in FIG. 3.

HeLa cells = assay: Cancer therapeutic effect of ALA-PDT by wavelength, hematoxylin-eosin staining of subcutaneous HeLa tumors; type: in vivo, SCID mice; conditions: for tumor tissue histology (effect of ALA-PDT): 750 mg/kg b.w. ALA tail vein, 100 J/cm^2, after 4 hours, tissue taken following day
Method: 5×10^5 HeLa cells were subcutaneously injected into SCID mice of the mouse numbers 1 to 3. […] After maintaining the mice until the size of tumors reaches that described in Table 1, 750 mg/kg b.w. of ALA was injected into the tail vein of the mice of numbers 1 and 2. After 4 hours, the mouse of number 1 was irradiated with LED light having a peak at a wavelength of 517 nm and the mouse of number 2 was irradiated with LED light having a peak at a wavelength of 629 nm. The SCID mice irradiated with light listed above were each anesthetized on the following day; a portion containing HeLa cells was cut out, fixed in formaldehyde, subjected to dehydration treatment with ethanol and xylene, and then embedded in paraffin; and a small piece thinly sliced into a thickness of 5 μm was stained with hematoxylin-eosin to observe the tissue under a light microscope.

NCC(=O)CCC(=O)O [ALA, 5-aminolevulinic acid]
cell-killing effect of lights at 502 nm, 517 nm and 529 nm relative to light at 636 nm (MKN45 cells; with light shielding by hemoglobin, lower optical power densities at 502-529 nm): comparable cell-killing effects compared to light at 636 nm
cell-killing effect of ALA-PDT (MKN45 cells; without light shielding by hemoglobin, 0.168 mg/mL ALA 4 hours, 4.5 J/cm^2, lights with peak at 402, 502, 517, 529 or 636 nm compared): stronger in the order of lights having a peak at 402 nm, 502 nm, 517 nm, 529 nm, or 636 nm
effect of ALA-PDT at 517 nm compared with 629 nm (cell density, amount of blebs) (HeLa cells; mouse number 1 (517 nm) versus mouse number 2 (629 nm), tumors about 4 mm in height): the effect of ALA-PDT was higher
tumor tissue histology (effect of ALA-PDT) (HeLa cells; mouse number 1, LED 517 nm): the condensation of the cytoplasm, the disappearance of the nucleus, and clearance between cells due to the generation of blebs were observed
tumor tissue histology (effect of ALA-PDT) (HeLa cells; mouse number 2, LED 629 nm): the condensation of the cytoplasm, the disappearance of the nucleus, and clearance between cells due to the generation of blebs were observed
